Laboratory results reported in patent US10774064B2 (Cadent Therapeutics, Inc., priority 2016, dated 2020).

Target: T1, small-conductance Ca2+-activated K+ channels (SK channels, subtype 2) (Homo sapiens, UniProt Q9H2S1)
T1 construct: expressed in transfected cells; host or cells: HEK293
Test: whole-cell patch-clamp of ionic current through SK2 channels in HEK293 cells (SC100)
Format: cell-based
Conditions: whole-cell patch-clamp, HEK293 cells expressing SK2 channels; concentration that increases the basal current by 100%
In short: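 Whole-cell patch-clamp recording of current in HEK293 cells expressing SK2 channels. SC100 is the compound concentration that increases basal current by 100%.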

Row | Structure (SMILES) | SC100 (μM)
1 | Cc1ccn(-c2nc(NCC3CCCO3)cc(C(C)O)n2)n1 (stereo not shown) [IN10880-055-P1] | + (+ means >1 uM)
2 | Cc1ccn(-c2nc(NC(C)C)cc(C(C)O)n2)n1 (stereo not shown) [IN10880-056-P1] | + (+ means >1 uM)
3 | Cc1ccn(-c2nc(NCC3CCOC3)cc(C(C)O)n2)n1 (stereo not shown) [IN10880-058-P1] | + (+ means >1 uM)
4 | Cc1ccn(-c2nc(NC3CCCCC3C)cc(C(C)O)n2)n1 (stereo not shown) [IN10880-059-P1] | + (+ means >1 uM)
5 | Cc1ccn(-c2nc(NC3CCCC(C(F)(F)F)C3)cc(C(C)O)n2)n1 (stereo not shown) [IN10880-062-P1] | + (+ means >1 uM)
6 | Cc1ccn(-c2nc(C(C)O)cc(N(C)C3CCCCC3)n2)n1 (stereo not shown) [IN10880-064-P1] | + (+ means >1 uM)
7 | Cc1ccn(-c2nc(NC(C)(C)C)cc(C(C)O)n2)n1 (stereo not shown) [IN10880-065-P1] | + (+ means >1 uM)
8 | Cc1csc(-c2nc(C(C)O)cc(N(C)C3CCCCC3)n2)n1 (stereo not shown) [IN10880-084-P1] | + (+ means >1 uM)
9 | Cc1csc(-c2nc(NC3CCCC(C(F)(F)F)C3)cc(C(C)O)n2)n1 (stereo not shown) [IN10880-085-P1] | + (+ means >1 uM)
10 | Cc1csc(-c2nc(NC3CCCCC3)cc(C(C)O)n2)n1 (stereo not shown) [IN10880-093-P1] | ++ (++ means 200 nM-1000 nM)
11 | Cc1csc(-c2nc(NC3CCC(F)(F)CC3)cc(N3CCC(N(C)C)CC3)n2)n1 [IN10881-020.P1] | +++ (+++ means <200 nM)
12 | Cc1ccn(-c2nc(C(C)O)cc(N3CCCC4CCCCC43)n2)n1 (stereo not shown) [IN10881-054-P1] | + (+ means >1 uM)
13 | Cc1ccn(-c2nc(C(C)O)cc(N3CCCCCC3)n2)n1 (stereo not shown) [IN10881-058-P1] | + (+ means >1 uM)
14 | Cc1ccn(-c2nc(C(C)O)cc(N(C)C3CCCCC3C)n2)n1 (stereo not shown) [IN10881-059-P1] | + (+ means >1 uM)
15 | Cc1ccn(-c2nc(NC3C(C)CCCC3C)cc(C(C)O)n2)n1 (stereo not shown) [IN10881-060-P1] | + (+ means >1 uM)
16 | CCN(CC)CC1CN(c2cc(NC3CCC(F)(F)CC3)nc(-c3nc(C)cs3)n2)CCO1 (stereo not shown) [IN10881-092-P1] | +++ (+++ means <200 nM)
17 | Cc1cc(C)n(-c2nc(NC3CCC(F)(F)CC3)nc(N3CCOCC3)n2)n1 [IN10881-098-P1, N-(4,4-difluorocyclohexyl)-4-(3,5-dimethyl-1H-pyrazol-1-yl)-6-morpholino-1,3,5-triazin-2-amine] | + (+ means >1 uM)
18 | COCC1COCCN1c1cc(NC2CCC(F)(F)CC2)nc(-c2nc(C)cs2)n1 (stereo not shown) [IN10881-099-P1] | + (+ means >1 uM)
19 | Cc1ccn(-c2nc(C(C)O)cc(N3CCCCC3)n2)n1 (stereo not shown) [IN10882-055-P1] | + (+ means >1 uM)
20 | Cc1ccn(-c2nc(NC(C)C)cc(N3CCOC(CO)C3)n2)n1 (stereo not shown) [IN10882-057-P1] | + (+ means >1 uM)
21 | Cc1ccn(-c2nc(N3CCCCCC3)cc(N3CCOC(CO)C3)n2)n1 (stereo not shown) [IN10882-068-P1] | + (+ means >1 uM)
22 | Cc1ccn(-c2nc(N3CCCCC3)cc(N3CCOC(CO)C3)n2)n1 (stereo not shown) [IN10882-072-P1, (4-(2-(3-methyl-1H-pyrazol-1-yl)-6-(piperidin-1-yl)pyrimidin-4-yl)morpholin-2-yl) methanol] | + (+ means >1 uM)
23 | Cc1ccn(-c2nc(NC(C)(C)C)cc(N3CCOC(CO)C3)n2)n1 (stereo not shown) [IN10882-083-P1] | + (+ means >1 uM)
24 | Cc1cc(C)n(-c2cc(NC3CCC(F)(F)CC3)cc(N3CCOCC3)c2)n1 [IN10963-024-P1, N-(4,4-difluorocyclohexyl)-3-(3,5-dimethyl-1H-pyrazol-1-yl)-5-morpholinoaniline] | + (+ means >1 uM)
25 | Cc1cc(C)n(-c2nc(NC3CCC(F)CC3)cc(N3CCOCC3)n2)n1 (stereo not shown) [IN10963-049-P1] | ++ (++ means 200 nM-1000 nM)
26 | Cc1csc(-c2nc(NC3CCC(F)(F)CC3)cc(N3CCOC(COC(C)C)C3)n2)n1 (stereo not shown) [IN10964-007-P1] | +++ (+++ means <200 nM)
27 | Cc1csc(-c2nc(NC3CCC(F)(F)CC3)cc(N3CCOCC3COC(C)C)n2)n1 (stereo not shown) [IN10965-091-P1, N-(4,4-difluorocyclohexyl)-6-(3-(isopropoxymethyl)morpholino)-2-(4-methylthiazol-2-yl)pyrimidin-4-amine] | + (+ means >1 uM)
28 | Cc1cc(C)n(-c2ncc(N3CCOCC3)c(NC3CCC(F)(F)CC3)n2)n1 [IN10966-011-P1, N-(4,4-difluorocyclohexyl)-2-(3,5-dimethyl-1H-pyrazol-1-yl)-5-morpholinopyrimidin-4-amine] | + (+ means >1 uM)
29 | Cc1csc(-c2nc(NC3CCCC(F)(F)C3)cc(N3CCOCC3)n2)n1 (stereo not shown) [IN10966-028-P1] | ++ (++ means 200 nM-1000 nM)
30 | Cc1cc(NC2CC=C(F)CC2)nc(-c2nc(C)cs2)n1 (stereo not shown) [IN10966-057-P2, N-(4-fluorocyclohex-3-en-1-yl)-6-methyl-2-(4-methylthiazol-2-yl)pyrimidin-4-amine] | ++ (++ means 200 nM-1000 nM)

The next lines start with the values.

Row | SC100 (μM) | Structure (SMILES)
31 | ++ (++ means 200 nM-1000 nM) | Cc1csc(-c2nc(NC3CCC(F)(F)CC3)cc(C(C)O)n2)n1 (stereo not shown) [IN10880-035-P1, 1-(6-((4,4-difluorocyclohexyl)amino)-2-(4-methylthiazol-2-yl)pyrimidin-4-yl) ethan-1-ol]
32 | ++ (++ means 200 nM-1000 nM) | Cc1csc(-c2nc(NC3CCC(F)(F)CC3)cc(N3CCCCC3)n2)n1 [IN10881-021.P1]
33 | ++ (++ means 200 nM-1000 nM) | Cc1csc(-c2nc(NC3CCC(F)(F)CC3)cc(N3CCCC(O)C3)n2)n1 (stereo not shown) [IN10881-023-P2]
34 | ++ (++ means 200 nM-1000 nM) | Cc1csc(-c2nc(NC3CCC(F)(F)CC3)cc(N3CCOC(CO)C3)n2)n1 (stereo not shown) [IN10881-025-P1]
35 | ++ (++ means 200 nM-1000 nM) | Cc1csc(-c2nc(NC3CCC(F)(F)CC3)cc(N3CCOCC3CO)n2)n1 (stereo not shown) [IN10881-027-P1]
36 | + (+ means >1 uM) | CC(=O)c1cc(NC2CCC(F)(F)CC2)nc(-n2nc(C)cc2C)n1 [IN10881-040-P1, 1-(6-((4,4-difluorocyclohexyl)amino)-2-(3,5-dimethyl-1H-pyrazol-1-yl)pyrimidin-4-yl)ethan-1-one]
37 | + (+ means >1 uM) | Cc1csc(-c2nc(NC3CCC(F)(F)CC3)cc(N(C)C3CC3)n2)n1 [IN10881-090-P1]
38 | + (+ means >1 uM) | Cc1csc(-c2nc(NC3CCC(F)(F)CC3)cc(N3CCCC3)n2)n1 [IN10882-014-P1]
39 | ++ (++ means 200 nM-1000 nM) | Cc1csc(-c2nc(NC3CCC(F)(F)CC3)cc(N3CCC(CO)C3)n2)n1 (stereo not shown) [IN10882-020-P1]
40 | + (+ means >1 uM) | Cc1csc(-c2nc(NC3CCC(F)(F)CC3)cc(NC3COC3)n2)n1 [IN10882-040-P1]
41 | + (+ means >1 uM) | Cc1csc(-c2nc(NC3CCC(F)(F)CC3)cc(N(C)C3COC3)n2)n1 [IN10882-043-P1]
42 | + (+ means >1 uM) | Cc1cc(C)n(-c2nc(NC3CCC(F)(F)CC3)cc(C(C)OC(C)C)n2)n1 (stereo not shown) [IN10963-068-P1, N-(4,4-difluorocyclohexyl)-2-(3,5-dimethyl-1H-pyrazol-1-yl)-6-(1-isopropoxyethyl)pyrimidin-4-amine]
43 | + (+ means >1 uM) | Cc1cc(C)n(-c2nc(CCO)cc(NC3CCC(F)(F)CC3)n2)n1 [IN10963-077-P1, 2-(6-((4,4-difluorocyclohexyl)amino)-2-(3,5-dimethyl-1H-pyrazol-1-yl)pyrimidin-4-yl) ethan-1-ol]
44 | ++ (++ means 200 nM-1000 nM) | Cc1cc(C)n(-c2nc(NC3CCC(F)(F)CC3)cc(N3CCOC(COC(C)C)C3)n2)n1 (stereo not shown) [IN10964-008-P1]
45 | + (+ means >1 uM) | Cc1cc(C)n(-c2nc(NC3CCC(F)(F)CC3)cc(C(C)N(C)C)n2)n1 (stereo not shown) [IN10964-046-P1, N-(4,4-difluorocyclohexyl)-2-(3,5-dimethyl-1H-pyrazol-1-yl)-6-(1-(dimethylamino)ethyl)pyrimidin-4-amine]
46 | ++ (++ means 200 nM-1000 nM) | Cc1cc(C)n(-c2nc(NC3CCC(F)(F)CC3)cc(N3CCOCC3COC(C)C)n2)n1 (stereo not shown) [IN10965-089-P1]
47 | + (+ means >1 uM) | Cc1cc(C)n(-c2cc(C)c(NC3CCC(F)(F)CC3)nn2)n1 [IN10966-083-P1, N-(4,4-difluorocyclohexyl)-6-(3,5-dimethyl-1H-pyrazol-1-yl)-4-methylpyridazin-3-amine]
48 | + (+ means >1 uM) | COCCOc1cc(NC2CCC(F)(F)CC2)nc(-n2ccc(C)n2)n1 [IN10966-093-P1]
49 | + (+ means >1 uM) | Cc1ccn(-c2nc(NC3CCC(F)(F)CC3)cc(OCCN(C)C)n2)n1 [IN10966-095-P1]
50 | + (+ means >1 uM) | Cc1ccnn1-c1cc(C#N)cc(NC2CCC(F)(F)CC2)n1 [IN10967-061-P1, 2-((4,4-difluorocyclohexyl)amino)-6-(5-methyl-1H-pyrazol-1-yl)isonicotinonitrile]
51 | ++ (++ means 200 nM-1000 nM) | Cc1ccn(-c2cc(CN)cc(NC3CCC(F)(F)CC3)n2)n1 [IN10967-063-P1, 4-(aminomethyl)-N-(4,4-difluorocyclohexyl)-6-(3-methyl-1H-pyrazol-1-yl)pyridin-2-amine]
52 | + (+ means >1 uM) | Cc1csc(-c2nc(NC3CCC(F)(F)CC3)cc(C(O)c3ccccc3)n2)n1 (stereo not shown) [IN10971-033-P1, (6-((4,4-difluorocyclohexyl)amino)-2-(4-methylthiazol-2-yl)pyrimidin-4-yl) (phenyl) methanol]
53 | + (+ means >1 uM) | Cc1ccc(-c2nc(NC3CCC(F)(F)CC3)cc(N3CCOCC3)n2)n1C [IN10971-059-P1, N-(4,4-difluorocyclohexyl)-2-(1,5-dimethyl-1H-pyrrol-2-yl)-6-morpholino pyrimidin-4-amine]
54 | + (+ means >1 uM) | FC1(F)CCC(Nc2cc(N3CCOCC3)nc(-c3ccco3)n2)CC1 [IN10971-060-P1, N-(4,4-difluorocyclohexyl)-2-(furan-2-yl)-6-morpholinopyrimidin-4-amine]
55 | + (+ means >1 uM) | Cc1ccc(-c2nc(NC3CCC(F)(F)CC3)cc(N3CCOCC3)n2)o1 [IN10971-077-P1, N-(4,4-difluorocyclohexyl)-2-(5-methylfuran-2-yl)-6-morpholinopyrimidin-4-amine]
